Data from patent publication US20060079510A1, “Use of PARP-1 inhibitors for protecting tumorcidal lymphocytes from apoptosis” (priority 2004, published 2006).
Entries after “also recorded” stand apart in the source; their conditions may differ.

Tests used:
[1] = tested on: peripheral blood lymphocytes; assay: Oxidant-induced cell death in lymphocytes incubated with mononuclear phagocytes or hydrogen peroxide, flow cytometry; format: cell-based, human; settings: for protection of lymphocytes from phagocyte- or hydrogen peroxide-induced (oxidant/ROS-induced) cell death / apoptosis: pretreatment, PJ34 250 nM, DPQ 3 μM, Z-VAD.fmk 100 μM, overnight incubation with phagocytes or H2O2; for protection of lymphocytes from phagocyte-induced cell death (FIG. 1): overnight with autologous mononuclear phagocytes, catalase 200 U/ml, histamine, DPI 3 μM, p<0.001, n=4
Protocol: Peripheral venous blood was obtained as freshly prepared leukopacks from healthy blood donors at the Blood Centre, Sahlgren's Hospital, Göteborg, Sweden, to study the activation characteristics of cytotoxic lymphocytes in the presence and absence of MO, and ROM inhibitors. The blood (65 ml) was mixed with 92.5 ml Iscove's medium, 35 ml 6% Dextran (Kabi Pharmacia, Stockholm, Sweden) and 7.5 ml acid citrate dextrose (ACD) (Baxter, Deerfield, Ill.). After incubation for 15 minutes at room temperature, the supernatant was carefully layered onto Ficoll-Hypaque (Lymphoprep, Myegaard, Norway). Mononuclear cells (MNC) were collected at the interface after centrifugation at 380 g for 15 minutes at room temperature, washed twice in PBS and resuspended in Iscove's medium supplemented with 10% human AB^+ serum. During all further separation of cells, the cell suspensions were kept in siliconized test tubes (Vacuette, Greiner, Stockholm).
The MNC were further separated into lymphocyte and monocyte (MO) populations using the counter-current centrifugal elutriation (CCE) technique originally described by Yasaka and co-workers (Yasaka, T. et al., J. Immunol., 127:1515) with modifications as described in Hansson, M., et al. (J. Immunol., 156: 42 (1996); hereby incorporated by reference). Briefly, the sedimentation rate of cells in a spinning rotor was balanced by a counter-directed flow through the chamber. By slowly increasing the flow rate, fractions of cells of well-defined sizes were collected. The MNC were resuspended in elutration buffer containing 0.5% BSA (ICN Biomedicals Inc., Aurora, Ohio) and 0.1% EDTA (VWR, Göteborg, Sweden) in buffered NaCl and fed into a Beckman J2-21 ultracentrifuge with a JE-6B rotor (Bechman Coulter Inc., Fullerton, Calif.) at 2100 rpm. A fraction with >90% MO was obtained at a flow rate of 19 ml/min. A lymphocyte fraction enriched for NK-cells (CD3^−/56^+ phenotype) and T-cells (CD3^+/56^−) was recovered at flow rates of 14-15 ml/min. This fraction contained <3% MO and consisted of CD3ε^−/56^+ NK-cells (45-50%), CD3ε^+/56^− T-cells (35-40%), CD3ε^−/56^− cells (5-10%), and CD3ε^+/56^+ cells (1-5%), as judged by flow cytometry. In some experiments, dynabeads (Dynal A/S, Oslo, Norway) coated with anti-CD56 were used to obtain purified lymphocyte preparations of T-cells, as described in detail by Hansson, M., et al., incorporated above.
Briefly, lymphocytes were incubated overnight with autologous mononuclear phagocytes in the presence or absence of catalase (200 U/ml), histamine ([…]) or DPI (3 μM).
Briefly, lymphocytes, pretreated with PJ34 (250 ηM), Z-VAD.fmk (100 μM) or medium, were subjected to mononuclear phagocytes at different Mo/Ly ratios (FIG. 5A) or to different concentrations of H2O2 (FIG. 5C). FIGS. 5A-5D illustrate that PJ34 protected lymphocytes from cell death induced by phagocytes ([…], ratio 1:1, p<0.05) and hydrogen peroxide (FIGS. 5C and 5D, 250 μM, p<0.001).

[2] = tested on: tumoricidal lymphocytes; assay: Tumor-killing function of tumoricidal lymphocytes after phagocyte or hydrogen peroxide exposure; format: cell-based, human; settings: PJ34 250 nM or DPQ 3 μM
Excerpt: As detailed above, a significant part of the dysfunction of tumor-killing lymphocytes at the site of malignant tumor growth has been attributed to inhibitory signals from tumor-infiltrating or tumor-adjacent phagocytes. […] However, the molecular events underlying phagocyte-induced lymphocyte apoptosis are not fully understood. The role of two enzyme systems responsible for induction and execution of apoptosis, caspases and the poly(ADP-ribose) polymerase (PARP) were investigated. Human tumoricidal lymphocytes were incubated with autologous mononuclear phagocytes or with exogenously added hydrogen peroxide, and assayed for apoptotic features at various time points. […] It is therefore believed that PARP-dependent cell death may be critically involved in phagocyte-dependent, oxygen free radical-induced cell death.

[3] = tested on: NK cells; settings: H2-receptor antagonist or agonist; cited from earlier work
[4] = tested on: AML; assay: Treatment of subjects with AML in remission (Example 1); format: in vivo, human; settings: 3-aminobenzamide s.c. (50 mg/day) with histamine dihydrochloride, IL-2, cytarabine and thioguanine, 21-day cycles
Protocol: Subjects with AML in a first, second, subsequent or complete remission are treated in 21-day courses with IL-2 (35-50 μg (equivalent to 6.3-9×10^5 IU) subcutaneously (s.c.). twice daily), repeated with three to six-week intermissions and continued until relapse. In cycle #1, patients receive three weeks of low dose chemotherapy consisting of 16 mg/m^2/day cytarabine, and 40 mg/day thioguanine. Concomitantly, patients are injected subcutaneously with an effective amount of a pharmaceutically acceptable form of a PARP-1 inhibitor, 3-aminobenzamide. Additionally, the patients are administered an effective amount of a pharmaceutically acceptable form of histamine dihydrochloride to boost circulating histamine to a beneficial level twice daily (above 0.2 μmole/L). Histamine levels can be continually boosted to beneficial levels by administering histamine dihydrochloride by injection at 0.2 to 2.0 mg or 3-10 μg/kg twice daily in a pharmaceutically acceptable form of a ROM inhibitory compound during the IL-2 treatment. Thereafter, the subjects are allowed to rest for three to six weeks. After the rest period at the end of the first cycle (cycle #1), the second cycle (cycle #2) is initiated. […]

[5] = tested on: neoplastic disease and/or viral infection; assay: Treatment of subjects with neoplastic disease and/or viral infection (Example 4); format: in vivo, human; settings: CEP-6800 250 mg/day with IL-2, interferon-α and histamine, repeated every 4-6 weeks
Protocol: Subjects in need of enhanced cytotoxic lymphocyte activity, because of a neoplastic disease, and/or a viral infection such as hepatitis B (HBV), hepatitis C(HCV), human immunodeficiency virus (HIV), human papilloma virus (HPV) or herpes simplex virus (HSV) type 1 or 2, or other viral infections, are administered 250 mg/day of CEP-6800, a PARP-1 inhibitor. Additionally, subjects are administered human recombinant IL-2 (Proleukin®, Eurocetus) by subcutaneous injection or by continuous infusion of 27 μg/kg/day on days 1-5 and 8-12. The subjects also receive a daily dose of 6×10^6 U interferon-α administered by a suitable route, such as subcutaneous injection. This treatment also includes administering 0.2 to 2.0 mg or 3-10 μg/kg of histamine injected 1, 2, or more times per day in conjunction with the administration of IL-2 and/or interferon-α.
The above procedure is repeated every 4-6 weeks until an objective regression of the tumor is observed, or until improvement in the viral infection occurs. The therapy can be continued even after a first, second, or subsequent complete remission has been observed. In patients with complete responses, the therapy can be given with longer intervals between cycles. […]

[6] = tested on: caspase-3; assay: Caspase activation in lymphocytes, FLICA assay (FAM-VAD.fmk), flow cytometry; format: cell-based, human; settings: overnight, phagocytes ratio 1:1 or H2O2 250 μM; PJ34 pretreatment printed as 250 μM and 250 ηM
Protocol: To study the role of caspases for ROS-induced cell death in anti-neoplastic cells, lymphocytes subjected to phagocytes or hydrogen peroxide were assayed for binding of a fluorochrome-conjugated caspase-3 inhibitor. Briefly, lymphocytes were incubated overnight with hydrogen peroxide (250 μM) or ROS-producing phagocytes (Ph, ratio 1:1) and then assayed for caspase activation using a Fluorochrome-Labeled Inhibitor of Caspases (FLICA) assay. Lymphocytes were incubated with a FITC-labeled caspase inhibitor (FAM-VAD.fmk, MP Biomedicals, Irvine, Calif.) for one hour according to the instructions provided by the manufacturer, and the percentage of cells with active caspase-3 was determined using flow cytometry. Caspase-3 activation was also monitored using the fluorogenic caspase-3 substrate PhiPhiLux (Oncolmmunin, Gaithersburg, Md.) according to the manufacturer's instructions. The FLICA reagent traverses the membranes of all cells and bind to the active site of activated caspase 3. Thus, only cells with activated caspases will retain the reagent and become fluorescent.
Briefly, after overnight incubation with mononuclear phagocytes (Ph, ratio 1:1) or hydrogen peroxide (250 μM) in the presence or absence of PJ34 (250 μM), lymphocytes were stained with a FITC-labeled caspase inhibitor (FAM-VAD.fmk) and assayed for caspase activation using flow cytometry. […]

[7] = tested on: lymphocytes; assay: Altered mitochondrial transmembrane potential (Mitochondrial Membrane Sensor Kit) and To-Pro-3 staining; format: cell-based, human; settings: H2O2 250 μM or mononuclear phagocytes; PJ34 250 μM as printed
Protocol: A Mitochondrial Membrane Sensor Kit (BD Clontech) was used to identify cells with altered mitochondrial transmembrane potential according to the manufacturer's protocol.
Briefly, lymphocytes exposed to hydrogen peroxide (250 μM) were assayed for altered mitochondrial transmembrane potential and plasma membrane integrity at various time points. Depolarization of the Ψm is seen as an increase in green fluorescence (mitosensor monomers).

[8] = tested on: Hepatitis C; assay: Treatment of subjects suffering from Hepatitis C (Example 3); format: in vivo, human; settings: PJ34 100 mg/day intravenously, three weeks
Protocol: Subjects suffering from Hepatitis C are identified. Individuals are administered 100 mg/day of a PARP-1 inhibitor, PJ34, intravenously for a period of three weeks.

[9] = vs subjects without PARP-1 inhibitor

Molecule: O=C1NCCc2c(OCCCCN3CCCCC3)cccc21 [DPQ]
- protection of lymphocytes from phagocyte- or hydrogen peroxide-induced (oxidant/ROS-induced) cell death / apoptosis [1]: completely protected; also recorded: resisted the oxidative stress
- restoration of tumor-killing function [2]: restored

Molecule: CNC(=C[N+](=O)[O-])NCCSCc1ccc(CN(C)C)o1 [ranitidine]
- effect of histamine on granulocyte mediated suppression of antibody dependent cytotoxicity of NK cells [3]: blocked

Molecule: NC(=O)c1cccc(N)c1 [3-aminobenzamide]
- clinical outcome in AML [4]: reduction in cancer

Molecule: NCc1ccc2[nH]c3c4c(c5c(c3c2c1)C(=O)NC5=O)CCC4 [CEP-6800]
- viral infection or tumor mass [5]: reduction in viral infection or tumor mass

Molecule: CN(C)CC(=O)Nc1ccc2[nH]c(=O)c3ccccc3c2c1 [PJ34]
- protection from cell death induced by hydrogen peroxide (FIGS. 5C and 5D) ([1]; PJ34 250 ηM, H2O2 250 μM, p<0.001): protected
- protection from cell death induced by phagocytes ([1]; PJ34 250 ηM, Mo/Ly ratio 1:1, p<0.05): protected
- protection of lymphocytes from phagocyte- or hydrogen peroxide-induced (oxidant/ROS-induced) cell death / apoptosis [1]: completely protected; also recorded: resisted the oxidative stress
- restoration of tumor-killing function [2]: restored
- caspase activation triggered by phagocytes and H2O2 (FIG. 3) [6]: reversed
- protection from oxidant-induced alterations of Ψm (FIG. 4) [7]: protected
- symptoms associated with Hepatitis C [8]: reduction in symptoms associated with Hepatitis C
- ROM-mediated damage [8, 9]: reduction in ROM-mediated damage
- cytotoxic lymphocyte activation [8, 9]: increase in cytotoxic lymphocyte activation

Molecule: CN(C)CCCSC(=N)N [dimaprit]
- effect of histamine on granulocyte mediated suppression of antibody dependent cytotoxicity of NK cells [3]: mimicked

Molecule: Q-VD.OPh
- protection of lymphocytes from phagocyte- or hydrogen peroxide-induced (oxidant/ROS-induced) cell death / apoptosis [1]: failed to protect

Molecule: c1ccc([I+]c2ccccc2)cc1 [DPI, diphenyliodonium]
- protection of lymphocytes from phagocyte-induced cell death (FIG. 1) [1]: fully protected

B1: catalase: H2O2 scavenger (Boehringer-Mannheim) (protein, UniProt P00432 2-527, looked up)
Catalase: ADNRDPASDQMKHWKEQRAAQKPDVLTTGGGNPVGDKLNSLTVGPRGPLLVQDVVFTDEMAHFDRERIPERVVHAKGAGAFGYFEVTHDITRYSKAKVFEHIGKRTPIAVRFSTVAGESGSADTVRDPRGFAVKFYTEDGNWDLVGNNTPIFFIRDALLFPSFIHSQKRNPQTHLKDPDMVWDFWSLRPESLHQVSFLFSDRGIPDGHRHMNGYGSHTFKLVNANGEAVYCKFHYKTDQGIKNLSVEDAARLAHEDPDYGLRDLFNAIATGNYPSWTLYIQVMTFSEAEIFPFNPFDLTKVWPHGDYPLIPVGKLVLNRNPVNYFAEVEQLAFDPSNMPPGIEPSPDKMLQGRLFAYPDTHRHRLGPNYLQIPVNCPYRARVANYQRDGPMCMMDNQGGAPNYYPNSFSAPEHQPSALEHRTHFSGDVQRFNSANDDNVTQVRTFYLKVLNEEQRKRLCENIAGHLKDAQLFIQKKAVKNFSDVHPEYGSRIQALLDKYNEEKPKNAVHTYVQHGSHLSAREKANL
- protection of lymphocytes from phagocyte-induced cell death (FIG. 1) [1]: fully protected
